Assays:
[1] = tested on: uninephrectomied db/db mice; experiment: Diabetic nephropathy pharmacodynamic model (uninephrectomied db/db mice); conditions: Compound 2 treatment, oral once per day
Description: Housing temperature was maintained at 22-26° C. and humidity at 40%-60%. Mice were allowed to access food and water ad libitum. […] Buprenorphine was applied after surgery.
Two weeks after surgery, db/db mice were randomly assigned into 5 groups. Wild type mice were used for the control animals. […] Compounds were orally administrated once per day for 10 weeks.
At the 5th and 9th week after compound administration, mice were placed in metabolic cages for urine collection. Albumin level was measured for 24 hr albumin excretion calculation. At the 10th week after treatment, the animals were sacrificed for kidney dissection. The kidney was fixed in 10% neutral buffed formalin, then paraffin-embedded for histopathological analysis. Glomerulosclerosis was assessed by evaluating glomerular basement membrane, mesangial expansion, nodular sclerosis and glomerulosclerosis.
Graphpad 8.0 software was used for statistical analysis. The difference between the values were analyzed with one-way ANOVA. The difference between histopathological score was analyzed with Kruskal-Wallis nonparameter test.

[2] = tested on: db/db type 2 diabetes model; experiment: Pharmacodynamics study on the db/db type 2 diabetes model; conditions: for Average daily body weights compared with the vehicle group: Day 10 to Day 15, Compound 2 0.05, 0.2, 1 mg/kg; for Statistical difference (p) of the blood glucose level between treatment group and vehicle group: random blood glucose
Description: 45 db/db mice were evenly divided into 5 groups before the initiation of treatment based on the body weights, serum triglyceride (TG) levels, and random blood glucose levels.
All animals were weighed daily before each dosing and treated daily for 14 consecutive days.
All the data was imported into an Excel file and presented as Mean±SEM. Graphpad Prism 7.0 software was used for data statistical analysis by One-way or Two-way ANOVA, with P<0.05 as the criterion of significant differences.

[3] = tested on: rat model of hyperlipidemia induced by high cholesterol diet; experiment: Rat model of hyperlipidemia induced by high cholesterol diet (serum TG, NEFA); assay type: in vivo, Sprague-Dawley rats; conditions: for Serum TG / Serum NEFA: mean ± SD, n=6; for Serum TG and NEFA levels compared with the vehicle group: Day 8, both 0.2 mg/kg and 0.6 mg/kg
Description: On the day before the start of the administration (Day 0), the animals were divided into 7 groups based on body weights and serum indicators and were continually fed with the high-cholesterol diet. The treatment groups were orally dosed with either compound or vehicle while continuing the high-cholesterol diet for a total of 1 week. The animals were weighed daily before the treatment, and the compounds were given at 9:00-9:30 in the morning based on the body weight of the day.

[4] = 7-day repeated oral gavage, body weights of ICR mice; assay type: in vivo; conditions: for Weight Gain compared with Day 0: n=10
Description: After 3 days of acclimatization, ICR mice were grouped according to their body weights. The day of grouping is designated as Day 0. […] The animals were weighed and recorded daily.

[5] = tested on: rat model of unilateral ureteral obstruction; experiment: Renal injury in rat model of unilateral ureteral obstruction; conditions: 0.2 mg/kg oral daily, 14 treatment days
Description: Housing temperature was maintained at 20-26° C. and humidity at 40%-60%. Rats were fed with a standard chow and allowed to access food and water ad libitum.
The formulation was prepared twice a week.
Vehicle or compounds were administrated by orally gavage daily. Unilateral ureteral obstruction was performed on the second day of compound treatment. Animals in model group, reference group and compound group underwent urethral ligation under isoflurane anesthesia one hour after receiving compound administration. A flank incision was cut to expose the left ureter, and a 4-0 surgical suture was used to perform two-point ligation to achieve urethral obstruction. Ureter was cut between the two ligation points. Animals in the control group were subjected to the same surgical treatment except the ligation and cut.
Rats were sacrificed after 14 days' compound treatment. The obstructed kidney was weighed and collected for histology. The tissue samples were fixed with formalin, and then paraffin embedded. The embedded tissue was sectioned and stained with hematoxylin & eosin and Masson trichrome to assess kidney structure and fibrosis.
The multiple comparison was analyzed with the Kruskal-Wallis non-parameter test. The Dunn's test was used to compare the difference to the model group.

[6] = Day 0 (day before treatment), group later dosed 0.2 mg/kg oral QD x 7 days
[7] = Day 0 (day before treatment), group later dosed 0.6 mg/kg oral QD x 7 days
[8] = Day 8, 0.2 mg/kg oral QD x 7 days
[9] = Day 8, 0.6 mg/kg oral QD x 7 days
[10] = 0.2 mg/kg (Aleglitazar: Day 4 and Day 5; Compound 2: throughout the study)
[11] = 1 mg/kg (Aleglitazar: Day 6; Compound 2: Day 4 and 5; Compounds 4 and 10: Day 4 to Day 7)

[2H]C([2H])(Cc1nc(-c2ccccc2)oc1C)Oc1ccc(C[C@H](OC)C(=O)O)c2sccc12 (single isomer, unassigned) [Compound 2]
Reduction of urine albumin [1]: More than 50%
Average daily body weights compared with the vehicle group ([2]; Aleglitazar 0.2 mg/kg): significantly higher
Statistical difference (p) of the blood glucose level between OGTT treatment group and vehicle group ([2]; OGTT Day 14, 0 min, 0.05 mpk): p > 0.05
Statistical difference (p) of the blood glucose level between OGTT treatment group and vehicle group ([2]; OGTT Day 14, 0 min, 0.2 mpk): p < 0.01
Statistical difference (p) of the blood glucose level between OGTT treatment group and vehicle group ([2]; OGTT Day 14, 0 min, 1 mpk): p < 0.0001
Statistical difference (p) of the blood glucose level between OGTT treatment group and vehicle group ([2]; OGTT Day 14, 15 min, 0.05 mpk): p > 0.05
Statistical difference (p) of the blood glucose level between OGTT treatment group and vehicle group ([2]; OGTT Day 14, 15 min, 0.2 mpk): p > 0.05
Statistical difference (p) of the blood glucose level between OGTT treatment group and vehicle group ([2]; OGTT Day 14, 15 min, 1 mpk): p < 0.0001
Statistical difference (p) of the blood glucose level between OGTT treatment group and vehicle group ([2]; OGTT Day 14, 30 min, 0.05 mpk): p > 0.05
Statistical difference (p) of the blood glucose level between OGTT treatment group and vehicle group ([2]; OGTT Day 14, 30 min, 0.2 mpk): p > 0.05
Statistical difference (p) of the blood glucose level between OGTT treatment group and vehicle group ([2]; OGTT Day 14, 30 min, 1 mpk): p < 0.05
Statistical difference (p) of the blood glucose level between OGTT treatment group and vehicle group ([2]; OGTT Day 14, 60 min, 0.05 mpk): p > 0.05
Statistical difference (p) of the blood glucose level between OGTT treatment group and vehicle group ([2]; OGTT Day 14, 60 min, 0.2 mpk): p < 0.01
Statistical difference (p) of the blood glucose level between OGTT treatment group and vehicle group ([2]; OGTT Day 14, 60 min, 1 mpk): p < 0.0001
Statistical difference (p) of the blood glucose level between OGTT treatment group and vehicle group ([2]; OGTT Day 14, 120 min, 0.05 mpk): p > 0.05
Statistical difference (p) of the blood glucose level between OGTT treatment group and vehicle group ([2]; OGTT Day 14, 120 min, 0.2 mpk): p < 0.05
Statistical difference (p) of the blood glucose level between OGTT treatment group and vehicle group ([2]; OGTT Day 14, 120 min, 1 mpk): p < 0.001
Statistical difference (p) of the blood glucose level between treatment group and vehicle group ([2]; Day 0, 0.05 mpk): p > 0.05
Statistical difference (p) of the blood glucose level between treatment group and vehicle group ([2]; Day 0, 0.2 mpk): p > 0.05
Statistical difference (p) of the blood glucose level between treatment group and vehicle group ([2]; Day 0, 1 mpk): p > 0.05
Statistical difference (p) of the blood glucose level between treatment group and vehicle group ([2]; Day 7, 0.05 mpk): p > 0.05
Statistical difference (p) of the blood glucose level between treatment group and vehicle group ([2]; Day 7, 0.2 mpk): p > 0.05
Statistical difference (p) of the blood glucose level between treatment group and vehicle group ([2]; Day 7, 1 mpk): p < 0.05
Statistical difference (p) of the blood glucose level between treatment group and vehicle group ([2]; Day 14, 0.05 mpk): p > 0.05
Statistical difference (p) of the blood glucose level between treatment group and vehicle group ([2]; Day 14, 0.2 mpk): p < 0.05
Statistical difference (p) of the blood glucose level between treatment group and vehicle group ([2]; Day 14, 1 mpk): p < 0.0001
Serum TG [3, 6]: 4.27 ± 1.61 mmol/L
Serum TG [3, 7]: 4.11 ± 1.10 mmol/L
Serum NEFA [3, 8]: 431.50 ± 151.63 µmol/L
Serum TG [3, 8]: 1.71 ± 0.72 mmol/L
Serum NEFA [3, 9]: 444.33 ± 119.12 µmol/L
Serum TG [3, 9]: 1.86 ± 0.99 mmol/L
Daily average weight gain compared with the vehicle group [4, 10]: no significant difference
Daily average weight gain compared with the vehicle group [4, 11]: significantly higher
Weight Gain compared with Day 0 ([4]; Day 1, 0.2 mg/kg oral QD): 0.45 ± 0.28 g
Weight Gain compared with Day 0 ([4]; Day 1, 1 mg/kg oral QD): 0.4 ± 0.17 g
Weight Gain compared with Day 0 ([4]; Day 2, 0.2 mg/kg oral QD): 1.42 ± 0.22 g
Weight Gain compared with Day 0 ([4]; Day 2, 1 mg/kg oral QD): 1.57 ± 0.26 g
Weight Gain compared with Day 0 ([4]; Day 3, 0.2 mg/kg oral QD): 2.56 ± 0.23 g
Weight Gain compared with Day 0 ([4]; Day 3, 1 mg/kg oral QD): 2.71 ± 0.19 g
Weight Gain compared with Day 0 ([4]; Day 4, 0.2 mg/kg oral QD): 2.96 ± 0.23 g
Weight Gain compared with Day 0 ([4]; Day 4, 1 mg/kg oral QD): 3.61 ± 0.19 g
Weight Gain compared with Day 0 ([4]; Day 5, 0.2 mg/kg oral QD): 3.73 ± 0.34 g
Weight Gain compared with Day 0 ([4]; Day 5, 1 mg/kg oral QD): 3.96 ± 0.29 g
Weight Gain compared with Day 0 ([4]; Day 6, 0.2 mg/kg oral QD): 4.66 ± 0.39 g
Weight Gain compared with Day 0 ([4]; Day 6, 1 mg/kg oral QD): 4.84 ± 0.4 g
Weight Gain compared with Day 0 ([4]; Day 7, 0.2 mg/kg oral QD): 5.08 ± 0.42 g
Weight Gain compared with Day 0 ([4]; Day 7, 1 mg/kg oral QD): 5.44 ± 0.36 g

CO[C@@H](Cc1ccc(OCCc2nc(-c3ccccc3)oc2C)c2ccsc12)C(=O)O (single isomer, unassigned) [Compound 4]
Serum NEFA compared with Aleglitazar ([3]; 0.2 mg/kg, T-test, P<0.05): significantly reduce
Serum TG and NEFA levels compared with the vehicle group [3]: significantly reduce

[2H]c1c([2H])c([2H])c(-c2nc(CCOc3ccc(C[C@H](OC)C(=O)O)c4sccc34)c(C)o2)c([2H])c1[2H] (single isomer, unassigned) [Compound 4]
Serum TG [3, 6]: 4.22 ± 1.71 mmol/L
Serum TG [3, 7]: 4.00 ± 1.71 mmol/L
Serum NEFA [3, 8]: 490.33 ± 113.61 µmol/L
Serum TG [3, 8]: 2.46 ± 1.18 mmol/L
Serum NEFA [3, 9]: 347.83 ± 113.61 µmol/L
Serum TG [3, 9]: 1.93 ± 0.58 mmol/L
Daily average weight gain compared with the vehicle group [4, 11]: significantly higher
Weight Gain compared with Day 0 ([4]; Day 1, 1 mg/kg oral QD): 0.35 ± 0.24 g
Weight Gain compared with Day 0 ([4]; Day 2, 1 mg/kg oral QD): 1.45 ± 0.34 g
Weight Gain compared with Day 0 ([4]; Day 3, 1 mg/kg oral QD): 2.75 ± 0.41 g
Weight Gain compared with Day 0 ([4]; Day 4, 1 mg/kg oral QD): 3.71 ± 0.46 g
Weight Gain compared with Day 0 ([4]; Day 5, 1 mg/kg oral QD): 4.26 ± 0.47 g
Weight Gain compared with Day 0 ([4]; Day 6, 1 mg/kg oral QD): 5.36 ± 0.54 g
Weight Gain compared with Day 0 ([4]; Day 7, 1 mg/kg oral QD): 5.91 ± 0.56 g

[2H]c1cccc([2H])c1-c1nc(CC([2H])([2H])Oc2ccc(C[C@H](OC)C(=O)O)c3sccc23)c(C)o1 (single isomer, unassigned) [Compound 10]
Daily average weight gain compared with the vehicle group [4, 11]: significantly higher
Weight Gain compared with Day 0 ([4]; Day 1, 1 mg/kg oral QD): 0.34 ± 0.17 g
Weight Gain compared with Day 0 ([4]; Day 2, 1 mg/kg oral QD): 1.63 ± 0.41 g
Weight Gain compared with Day 0 ([4]; Day 3, 1 mg/kg oral QD): 2.96 ± 0.37 g
Weight Gain compared with Day 0 ([4]; Day 4, 1 mg/kg oral QD): 3.85 ± 0.38 g
Weight Gain compared with Day 0 ([4]; Day 5, 1 mg/kg oral QD): 4.59 ± 0.39 g
Weight Gain compared with Day 0 ([4]; Day 6, 1 mg/kg oral QD): 5.75 ± 0.39 g
Weight Gain compared with Day 0 ([4]; Day 7, 1 mg/kg oral QD): 6.11 ± 0.53 g

CO[C@@H](Cc1ccc(OCCc2nc(-c3ccccc3)oc2C)c2ccsc12)C(=O)O [Aleglitazar, aleglitazar, reference compound]
Serum TG levels compared with the vehicle group ([2]; Day 6 and Day 12, Aleglitazar 0.2 mg/kg, Compound 2 at different dosages): significantly lower
Average daily body weights compared with the vehicle group ([2]; Aleglitazar 0.2 mg/kg): significantly higher
Statistical difference (p) of the blood glucose level between OGTT treatment group and vehicle group ([2]; OGTT Day 14, 0 min, 0.2 mpk): p < 0.001
Statistical difference (p) of the blood glucose level between OGTT treatment group and vehicle group ([2]; OGTT Day 14, 15 min, 0.2 mpk): p < 0.01
Statistical difference (p) of the blood glucose level between OGTT treatment group and vehicle group ([2]; OGTT Day 14, 30 min, 0.2 mpk): p > 0.05
Statistical difference (p) of the blood glucose level between OGTT treatment group and vehicle group ([2]; OGTT Day 14, 60 min, 0.2 mpk): p < 0.01
Statistical difference (p) of the blood glucose level between OGTT treatment group and vehicle group ([2]; OGTT Day 14, 120 min, 0.2 mpk): p < 0.01
Statistical difference (p) of the blood glucose level between treatment group and vehicle group ([2]; Day 0, 0.2 mpk): p > 0.05
Statistical difference (p) of the blood glucose level between treatment group and vehicle group ([2]; Day 7, 0.2 mpk): p < 0.05
Statistical difference (p) of the blood glucose level between treatment group and vehicle group ([2]; Day 14, 0.2 mpk): p < 0.01
Total score of renal focal lesions (infract, tubular dilation, tubular obstruction, fibrosis, necrosis) compared with model group [5]: did not achieve statistically significant improvement
Serum TG [3, 6]: 4.24 ± 1.18 mmol/L
Serum TG [3, 7]: 4.09 ± 2.17 mmol/L
Serum NEFA [3, 8]: 706.00 ± 190.15 µmol/L
Serum TG [3, 8]: 2.86 ± 0.86 mmol/L
Serum NEFA [3, 9]: 327.83 ± 90.73 µmol/L
Serum TG [3, 9]: 1.47 ± 0.46 mmol/L
Serum TG and NEFA levels compared with the vehicle group [3]: significantly reduce
Daily average weight gain compared with the vehicle group [4, 10]: significantly higher
Daily average weight gain compared with the vehicle group [4, 11]: significantly higher
Weight Gain compared with Day 0 ([4]; Day 1, 0.2 mg/kg oral QD): 0.48 ± 0.27 g
Weight Gain compared with Day 0 ([4]; Day 2, 0.2 mg/kg oral QD): 1.66 ± 0.39 g
Weight Gain compared with Day 0 ([4]; Day 2, 1 mg/kg oral QD): 1.64 ± 0.26 g
Weight Gain compared with Day 0 ([4]; Day 3, 0.2 mg/kg oral QD): 2.62 ± 0.42 g
Weight Gain compared with Day 0 ([4]; Day 3, 1 mg/kg oral QD): 2.61 ± 0.51 g
Weight Gain compared with Day 0 ([4]; Day 4, 0.2 mg/kg oral QD): 3.50 ± 0.42 g
Weight Gain compared with Day 0 ([4]; Day 4, 1 mg/kg oral QD): 3.33 ± 0.54 g
Weight Gain compared with Day 0 ([4]; Day 5, 0.2 mg/kg oral QD): 3.92 ± 0.4 g
Weight Gain compared with Day 0 ([4]; Day 5, 1 mg/kg oral QD): 3.86 ± 0.49 g
Weight Gain compared with Day 0 ([4]; Day 6, 0.2 mg/kg oral QD): 4.81 ± 0.37 g
Weight Gain compared with Day 0 ([4]; Day 6, 1 mg/kg oral QD): 4.98 ± 0.52 g
Weight Gain compared with Day 0 ([4]; Day 7, 0.2 mg/kg oral QD): 5.39 ± 0.56 g
Weight Gain compared with Day 0 ([4]; Day 7, 1 mg/kg oral QD): 5.34 ± 0.50 g

— patent US20240270731A1, “[…]” (ALEBUND PHARMACEUTICALS (HONG KONG) LIMITED, priority 2021, published 2024)
